Results from patent publication US11766468B2, “Method of treating prostate cancer with GnRH antagonist” (priority 2012, dated 2023).
Values joined by “and” are separate entries in the source; they are usually repeats but may differ in a detail not shown here. Equal values may be shown once. Marks after values point to notes of the source that are not given here. Square brackets hold non-standard residues; d marks the D form. Peptide text beside a SMILES is read from it. * marks the point of attachment. dPhe(4-NHCONH2) = NC(=O)Nc1ccc(C[C@@H](N)C(=O)O)cc1; Dihydroorotyl(S) = O=C1C[C@@H](C(=O)*)NC(=O)N1; dPhe(4-Cl) = N[C@H](Cc1ccc(Cl)cc1)C(=O)O; Phe(4-NH2) = Nc1ccc(C[C@H](N)C(=O)O)cc1; d2Nal = N[C@H](Cc1ccc2ccccc2c1)C(=O)O; Lys(iPr) = CC(C)NCCCC[C@H](N)C(=O)O; d3Pal = N[C@H](Cc1cccnc1)C(=O)O

Test: CS21 safety: treatment-emergent adverse events (MedDRA SOC/PT), crude incidence, also by subgroup
Format: in vivo
Method: The safety variables for this study were assessed on the following: the frequency and severity of adverse events (AEs); the presence of clinically significant changes in laboratory parameters (clinical chemistry, hematology and urinalysis); changes in electrocardiograms (ECGs) and vital signs; changes detected by physical examination; and body weight.
An AE was therefore any unfavorable or unintended sign (including an abnormal laboratory finding), symptom or disease temporally associated with the use of the product, whether or not related to the IMP.
An adverse drug reaction (ADR) was defined as an AE evaluated by the investigator as being probably or possibly related to treatment with the IMP.
AEs were graded according to the National Cancer Institute (NCI) Common Terminology Criteria for Adverse Events (CTCAE). In accordance with the CTCAE criteria, AEs were rated on a five-point scale corresponding to mild, moderate, severe, life-threatening or disabling and death. For those AEs not described in the CTCAE, a separate five-point rating scale was used for rating of the intensity of AEs as follows below:
Safety parameters were evaluated for all patients included in the ITT analysis set, comprising all 610 randomized patients who received at least one dose of study medication. All safety tables include four columns: the three treatment groups described separately, and the pooled degarelix group.
Adverse events were regarded as ‘treatment-emergent’ if they occurred in the time interval from initial dosing to end-of-study. Adverse events were considered ‘pre-treatment’ if they occurred between screening and the initial injections of IMP. As described above, all AEs were classified according to MedDRA (version 10.0) system organ class (SOC), sorted alphabetically, and by preferred term (PT), in decreasing frequency of occurrence. Treatment-emergent AEs were expressed in terms of intensity (using NCI CTCAE) and relationship to study drug.
Using the results from the summary of clinical efficacy (SCE) and summary of clinical safety (SCS) findings, different patient subgroups were analyzed. Subgroup distinguishers included race (white, black, and other), age (<65 years, […], and >75 years), weight (<70 kg, ≥70−<90 kg, and ≥90 kg), body mass index (BMI) (≤20, >20 to 30, and >30 kg/m^2)), region (North-America, Western Europe, Central and Eastern Europe and Other), and stage of prostate cancer (e.g., localized, locally advanced, and metastatic).

[1] = degarelix 240/160 mg, listed as degarelix
[2] = degarelix Total (pooled), leuprolide 7.5 mg
[3] = degarelix Total (pooled), leuprolide 7.5 mg, listed as degarelix
[4] = degarelix pooled, LUPRON DEPOT 7.5 mg
[5] = degarelix pooled, LUPRON DEPOT 7.5 mg, listed as degarelix
[6] = pooled degarelix, leuprolide 7.5 mg

Q: Which results are given for `CC(=O)N[C@H](Cc1ccc2ccccc2c1)C(=O)N[C@H](Cc1ccc(Cl)cc1)C(=O)N[C@H](Cc1cccnc1)C(=O)N[C@@H](CO)C(=O)N[C@@H](Cc1ccc(NC(=O)[C@@H]2CC(=O)NC(=O)N2)cc1)C(=O)N[C@H](Cc1ccc(NC(N)=O)cc1)C(=O)N[C@@H](CC(C)C)C(=O)N[C@@H](CCCCNC(C)C)C(=O)N1CCC[C@H]1C(=O)N[C@H](C)C(N)=O` [Degarelix, D-Alaninamide, N-acetyl-3-(2-naphthalenyl)-D-alanyl-4-chloro-D-phenylalanyl-3-(3-pyridinyl)-D-alanyl-L-seryl-4-[[[(4S)-hexahydro-2,6-dioxo-4-pyrimidinyl]carbonyl]amino]-L phenylalanyl-4-[(aminocarbonyl)amino]-D-phenylalanyl-L leucyl-N6-(1-methylethyl)-L-lysyl-L-prolyl] (Ac-[d2Nal][dPhe(4-Cl)][d3Pal]S[Phe(4-NH2)](Dihydroorotyl(S))[dPhe(4-NHCONH2)]L[Lys(iPr)]P[dA]-NH2)?
A: AEs leading to discontinuation, % of patients (degarelix 240/160 mg): 9%; AEs leading to discontinuation, E events (degarelix 240/160 mg): 19; AEs leading to discontinuation, N patients (degarelix 240/160 mg): 19; Alanine aminotransferase increased, % of patients (degarelix 240/160 mg): ( 8%); All AEs, E = number of adverse events (degarelix 240/160 mg): 941; All AEs, N = number of patients (degarelix 240/160 mg): 167; Arthralgia, % of patients (degarelix 240/160 mg): ( 3%); Aspartate aminotransferase increased, % of patients (degarelix 240/160 mg): ( 5%); Back pain, % of patients (degarelix 240/160 mg): ( 6%); Blood & lymphatic system disorders, % of patients (degarelix 240/160 mg): ( 5%); Cardiac disorders, % of patients (degarelix 240/160 mg): ( 9%); Chills, % of patients (degarelix 240/160 mg): ( 3%); Constipation, % of patients (degarelix 240/160 mg): ( 3%); Deaths (Grade 5), % of patients (degarelix 240/160 mg): 2%; Deaths (Grade 5), E events (degarelix 240/160 mg): 6; Deaths (Grade 5), N patients (degarelix 240/160 mg): 5; Ear & labyrinth disorders, % of patients (degarelix 240/160 mg): ( 1%); Endocrine disorders, % of patients (degarelix 240/160 mg): (<1%); Eye disorders, % of patients (degarelix 240/160 mg): ( 2%); Fatigue, % of patients (degarelix 240/160 mg): ( 6%); Gastrointestinal disorders, % of patients (degarelix 240/160 mg): (16%); General disorders & administration site conditions, % of patients (degarelix 240/160 mg): (50%); Hepatobiliary disorders, % of patients (degarelix 240/160 mg): (<1%); Hot flush, % of patients (degarelix 240/160 mg): (26%); Hypercholesterolaemia, % of patients (degarelix 240/160 mg): ( 6%); Hypertension, % of patients (degarelix 240/160 mg): ( 7%); Immune system disorders, % of patients (degarelix 240/160 mg): (<1%); Infections & infestations, % of patients (degarelix 240/160 mg): (19%); Injection site erythema, % of patients (degarelix 240/160 mg): (24%); Injection site induration, % of patients (degarelix 240/160 mg): ( 5%); Injection site nodule, % of patients (degarelix 240/160 mg): ( 6%); Injection site pain, % of patients (degarelix 240/160 mg): (30%); Injection site swelling, % of patients (degarelix 240/160 mg): ( 7%); Injury, poisoning & procedural complications, % of patients (degarelix 240/160 mg): ( 5%); Investigations, % of patients (degarelix 240/160 mg): (29%); Metabolism & nutrition disorders, % of patients (degarelix 240/160 mg): (13%); Musculoskeletal & connective tissue disorders, % of patients (degarelix 240/160 mg): (18%); Nausea, % of patients (degarelix 240/160 mg): ( 5%); Neoplasms benign, malignant & unspecified, % of patients (degarelix 240/160 mg): ( 6%); Nervous system disorders, % of patients (degarelix 240/160 mg): (13%); Psychiatric disorders, % of patients (degarelix 240/160 mg): ( 8%); Renal & urinary disorders, % of patients (degarelix 240/160 mg): (13%); Reproductive system & breast disorders, % of patients (degarelix 240/160 mg): ( 6%); Respiratory, thoracic & mediastinal disorders, % of patients (degarelix 240/160 mg): ( 8%); Serious AEs, % of patients (degarelix 240/160 mg): 12%; Serious AEs, E events (degarelix 240/160 mg): 41; Serious AEs, N patients (degarelix 240/160 mg): 24; Skin & subcutaneous tissue disorders, % of patients (degarelix 240/160 mg): (10%); Surgical & medical procedures, % of patients (degarelix 240/160 mg): (<1%); Urinary tract infection, % of patients (degarelix 240/160 mg): ( 1%); Vascular disorders, % of patients (degarelix 240/160 mg): (32%); Weight increased, % of patients (degarelix 240/160 mg): (11%); Hot flush, % of patients [1]: 26%; Treatment-emergent adverse events (all AEs), % of patients [1]: 83%; Injection site erythema, % of patients (degarelix Total (pooled)): (21%); Injection site induration, % of patients (degarelix Total (pooled)): ( 5%); Injection site nodule, % of patients (degarelix Total (pooled)): ( 5%); Injection site swelling, % of patients (degarelix Total (pooled)): ( 7%); Surgical & medical procedures, % of patients (degarelix Total (pooled)): (<1%); ADRs, % of patients [2]: 58%; ADRs, E events [2]: 922; ADRs, N patients [2]: 238; AEs leading to discontinuation, % of patients [2]: 8%; AEs leading to discontinuation, E events [2]: 34; AEs leading to discontinuation, N patients [2]: 34; Alanine aminotransferase increased, % of patients [2]: ( 9%); All AEs, E = number of adverse events [2]: 1878; All AEs, N = number of patients [2]: 330; Aspartate aminotransferase increased, % of patients [2]: ( 5%); Back pain, % of patients [2]: ( 6%); Cardiac disorders, % of patients [2]: ( 9%); Chills, % of patients [2]: ( 4%); Constipation, % of patients [2]: ( 4%); Deaths (Grade 5), % of patients [2]: 2%; Deaths (Grade 5), E events [2]: 11; Deaths (Grade 5), N patients [2]: 10; Ear & labyrinth disorders, % of patients [2]: ( 2%); Endocrine disorders, % of patients [2]: ( 1%); Eye disorders, % of patients [2]: ( 2%); Fatigue, % of patients [2]: ( 5%); Gastrointestinal disorders, % of patients [2]: (17%); General disorders & administration site conditions, % of patients [2]: (47%); Hepatobiliary disorders, % of patients [2]: (<1%); Hot flush, % of patients [2]: (26%); Hypercholesterolaemia, % of patients [2]: ( 5%); Hypertension, % of patients [2]: ( 6%); Immune system disorders, % of patients [2]: (<1%); Infections & infestations, % of patients [2]: (20%); Injection site pain, % of patients [2]: (29%); Injury, poisoning & procedural complications, % of patients [2]: ( 5%); Metabolism & nutrition disorders, % of patients [2]: (10%); Nausea, % of patients [2]: ( 5%); Neoplasms benign, malignant & unspecified, % of patients [2]: ( 5%); Nervous system disorders, % of patients [2]: (12%); Psychiatric disorders, % of patients [2]: ( 8%); Renal & urinary disorders, % of patients [2]: (13%); Respiratory, thoracic & mediastinal disorders, % of patients [2]: (10%); Serious AEs, % of patients [2]: 11%; Serious AEs, E events [2]: 67; Serious AEs, N patients [2]: 45; Skin & subcutaneous tissue disorders, % of patients [2]: (10%); Vascular disorders, % of patients [2]: (33%); Weight increased, % of patients [2]: (10%); Arthralgia, % of patients [3]: 4% and 4.2%; Back pain, % of patients [3]: 6%; Cardiac disorders, % of patients [3]: 9%; Gastrointestinal disorders, % of patients [3]: 17%; General disorders & administration site conditions, % of patients [3]: 47%; Infections & infestations, % of patients [3]: 20%; Injection site pain, % of patients [3]: 29%; Investigations, % of patients [3]: 27%; Musculoskeletal & connective tissue disorders, % of patients [3]: 17%; Renal & urinary disorders, % of patients [3]: 13%; Reproductive system & breast disorders, % of patients [3]: 5%; Treatment-emergent adverse events (all AEs), % of patients [3]: 81%; Urinary tract infection, % of patients [3]: 3%; Vascular disorders, % of patients [3]: 33%; Myocardial Infarction (PT), % of patients (degarelix combined, LUPRON DEPOT 7.5 mg): 0.5%; Deep vein thrombosis, N patients (degarelix pooled): 0; Libido decreased, N patients (degarelix pooled): 0; Cardiac murmur, % of patients [4]: 0%; Chest pain, % of patients [4]: (<1%)*; Cystitis noninfective, % of patients [4]: 0%; Deep vein thrombosis, % of patients [4]: 0%; Erectile dysfunction, % of patients [4]: (1%)*; Libido decreased, % of patients [4]: 0%; Musculoskeletal stiffness, % of patients [4]: 0%; Myocardial ischaemia, % of patients [4]: (<1%)*; Oedema peripheral, % of patients [4]: (2%)*; Urinary retention, % of patients [4]: (1%)*; Chest pain, % of patients [5]: 0.5%; Erectile dysfunction, % of patients [5]: 1% and 1.5%; Oedema peripheral, % of patients [5]: 2%; Urinary retention, % of patients [5]: 1.2%; discontinuations due to injection site adverse events (degarelix s.c., 12 months): < 1%; immediate onset hypersensitivity reactions (in vivo): no immediate onset hypersensitivity reactions; ADRs: general disorders and administration site conditions including injection-site reactions, % of patients (pooled degarelix): 42%; Gynaecomastia, prostatitis or testicular atrophy (each), % of patients (pooled degarelix): 2%; Hyperhidrosis, % of patients (pooled degarelix): < 1%; Night sweats, % of patients (pooled degarelix): 1%; Pelvic pain, % of patients (pooled degarelix): < 1%; Sweating disorders, % of patients (pooled degarelix): approximately 1%; Testicular pain, % of patients (pooled degarelix): < 1%; incidence of all other injection site preferred terms (pooled degarelix): ≤ 0.5 per 100 injections; incidence of injection site erythema (pooled degarelix): 1.9 per 100 injections; incidence of injection site pain (pooled degarelix): 2.9 per 100 injections; incidence of treatment-emergent injection site reactions (pooled degarelix): 4.4 per 100 injections; injection site reactions which led to withdrawal, % of patients (pooled degarelix): 1.2%; patients with SAEs that led to withdrawal, number (pooled degarelix): 17; Hot flushes reported as ADR, % of patients [6]: 25%; SAEs: cardiac disorders, % of patients [6]: 2%; SAEs: renal and urinary disorders, % of patients [6]: 2%
